Laboratory results published in PubChem BioAssay AID1963425 (Molecular Pharmacology Branch, DTP, NCI, 2024).
“And” between values parts separate entries of the source, which are not always exact repeats. Identical values can stand only once.

Tested on: 323965-272-R-J2-PDC complex spheroid growth, % test/control
Assay: Anticancer human tumor 323965-272-R-J2-PDC patient-derived pancreatic carcinoma cell line growth inhibition [Asc]
Details: for viability, T/C: stronger effect = lower value; active = viability on the fitted dose curve at most 10% of control; inactive = the rest
Outline: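 Concentration series start at each agent's clinical Cmax, or at 10 microM when none is established, and drop in half-log steps; agents are applied alone or together to complex spheroids built with HUVEC and hMSC.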

[1] = curve of first compound, second compound 0.0316 µM
[2] = curve of first compound, second compound 0.1 µM
[3] = curve of first compound, second compound 0.316 µM
[4] = curve of first compound, second compound 1 µM
[5] = second compound 0.0316 µM, first compound 0.0316 µM
[6] = second compound 0.0316 µM, first compound 0.1 µM
[7] = second compound 0.0316 µM, first compound 0.316 µM
[8] = second compound 0.0316 µM, first compound 1 µM
[9] = second compound 0.0316 µM, first compound 3.16 µM
[10] = second compound 0.0316 µM, first compound 10 µM
[11] = second compound 0.1 µM, first compound 0.0316 µM
[12] = second compound 0.1 µM, first compound 0.1 µM
[13] = second compound 0.1 µM, first compound 0.316 µM
[14] = second compound 0.1 µM, first compound 1 µM
[15] = second compound 0.1 µM, first compound 3.16 µM
[16] = second compound 0.1 µM, first compound 10 µM
[17] = second compound 0.316 µM, first compound 0.0316 µM
[18] = second compound 0.316 µM, first compound 0.1 µM
[19] = second compound 0.316 µM, first compound 0.316 µM
[20] = second compound 0.316 µM, first compound 1 µM
[21] = second compound 0.316 µM, first compound 3.16 µM
[22] = second compound 0.316 µM, first compound 10 µM
[23] = second compound 1 µM, first compound 0.0316 µM
[24] = second compound 1 µM, first compound 0.1 µM
[25] = second compound 1 µM, first compound 0.316 µM
[26] = second compound 1 µM, first compound 1 µM
[27] = second compound 1 µM, first compound 3.16 µM
[28] = second compound 1 µM, first compound 10 µM
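Also: compound exposure lasted 7 days starting three days after spheroid seeding.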
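For viability, T/C in this document: 100% = DMSO vehicle control wells with viability set relative to vehicle.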

O=C(c1ccc(F)c(F)c1Nc1ccc(I)cc1F)N1CC(O)([C@@H]2CCCCN2)C1
inactive: viability, T/C (compound 0.00316 µM) 106% and 101% and 88.5% | viability, T/C (compound 0.01 µM) 82.5% and 96.7% and 83.5% | viability, T/C (compound 0.0316 µM) 87% and 76.1% and 79% | viability, T/C (compound 0.1 µM) 62.9% and 59.7% and 52.5% | viability, T/C (compound 0.316 µM) 34.9% and 34.5% and 31.9% | viability, T/C (compound 1 µM) 19.6% and 20.1% and 18.8%
0.176 µM and 0.149 µM and 0.123 µM: IC50 (curve of compound)

O=C(c1cc(Cc2n[nH]c(=O)c3ccccc23)ccc1F)N1CCN(C(=O)C2CC2)CC1 + CNC(C)C(=O)NC1CN(S(=O)(=O)c2cccc(S(=O)(=O)N3CCC4CCC(C(=O)NC(c5ccccc5)c5ccccc5)N4C(=O)C(NC(=O)C(C)NC)C3)c2)CCC2CCC(C(=O)NC(c3ccccc3)c3ccccc3)N2C1=O
< 0.0316 µM: IC50 (curve of first compound, second compound 0.00316 µM)
inactive: viability, T/C (second compound 0.00316 µM, first compound 0.0316 µM) 43.1% | viability, T/C (second compound 0.00316 µM, first compound 0.1 µM) 45.3% | viability, T/C (second compound 0.00316 µM, first compound 0.316 µM) 41% | viability, T/C (second compound 0.00316 µM, first compound 1 µM) 47.4% | viability, T/C (second compound 0.00316 µM, first compound 3.16 µM) 44.6% | viability, T/C (second compound 0.00316 µM, first compound 10 µM) 36.6% | viability, T/C (second compound 0.01 µM, first compound 0.0316 µM) 99.4% | viability, T/C (second compound 0.01 µM, first compound 0.1 µM) 101% | viability, T/C (second compound 0.01 µM, first compound 0.316 µM) 97.5% | viability, T/C (second compound 0.01 µM, first compound 1 µM) 94.5% | viability, T/C (second compound 0.01 µM, first compound 3.16 µM) 75.9% | viability, T/C (second compound 0.01 µM, first compound 10 µM) 72% | viability, T/C [5] 101% | viability, T/C [6] 99.4% | viability, T/C [7] 100% | viability, T/C [8] 105% | viability, T/C [9] 102% | viability, T/C [10] 70.7% | viability, T/C [11] 92.6% | viability, T/C [12] 91.9% | viability, T/C [13] 89.7% | viability, T/C [14] 99.3% | viability, T/C [15] 94.5% | viability, T/C [16] 71.9% | viability, T/C [17] 93.4% | viability, T/C [18] 89.1% | viability, T/C [19] 97.9% | viability, T/C [20] 89.7% | viability, T/C [21] 93.7% | viability, T/C [22] 80% | viability, T/C [23] 94.5% | viability, T/C [24] 87% | viability, T/C [25] 83.3% | viability, T/C [26] 93.1% | viability, T/C [27] 89.2% | viability, T/C [28] 68.3%
> 10 µM: IC50 (curve of first compound, second compound 0.01 µM) | IC50 [1] | IC50 [2] | IC50 [3] | IC50 [4]

C=C(F)C(=O)N1CCN(c2nc(OCC3CCCN3C)nc3c2CCN(c2cccc4cccc(Cl)c24)C3)CC1CC#N (stereo unspecified) + Cc1c(S(C)(=O)=O)c(-c2cc(F)cc(N3CCN(c4ccc(NS(=O)(=O)c5ccc(NC(CCN6CCC(C(=O)OCCCP(=O)(O)O)CC6)CSc6ccccc6)c(S(=O)(=O)C(F)(F)F)c5)cc4)CC3)c2)c(-c2ccc(Cl)cc2)n1C(C)C
3.41 µM: IC50 [4]
inactive: viability, T/C [5] 70.5% | viability, T/C [6] 62.3% | viability, T/C [7] 59.3% | viability, T/C [8] 62.1% | viability, T/C [9] 75% | viability, T/C [11] 69.7% | viability, T/C [12] 61.2% | viability, T/C [13] 60.1% | viability, T/C [14] 66.7% | viability, T/C [15] 72.2% | viability, T/C [17] 62.3% | viability, T/C [18] 52.4% | viability, T/C [19] 54.4% | viability, T/C [20] 62.2% | viability, T/C [21] 60.1% | viability, T/C [23] 56% | viability, T/C [24] 50.8% | viability, T/C [25] 51.3% | viability, T/C [26] 55.1% | viability, T/C [27] 54.1% | viability, T/C (second compound 3.16 µM, first compound 0.0316 µM) 51.4% | viability, T/C (second compound 3.16 µM, first compound 0.1 µM) 41.2% | viability, T/C (second compound 3.16 µM, first compound 0.316 µM) 45% | viability, T/C (second compound 3.16 µM, first compound 1 µM) 41.8% | viability, T/C (second compound 3.16 µM, first compound 3.16 µM) 36.8% | viability, T/C (second compound 10 µM, first compound 0.0316 µM) 44.1% | viability, T/C (second compound 10 µM, first compound 0.1 µM) 43.5% | viability, T/C (second compound 10 µM, first compound 0.316 µM) 34.5% | viability, T/C (second compound 10 µM, first compound 1 µM) 41.4% | viability, T/C (second compound 10 µM, first compound 3.16 µM) 34.4%
4.22 µM: IC50 [2]
3.72 µM: IC50 [3]
< 0.0316 µM: IC50 (curve of first compound, second compound 3.16 µM) | IC50 (curve of first compound, second compound 10 µM)
4.34 µM: IC50 [1]
active: viability, T/C [10] 8.41% | viability, T/C [16] 2.28% | viability, T/C [22] 0.32% | viability, T/C [28] 0.2% | viability, T/C (second compound 3.16 µM, first compound 10 µM) 0.16% | viability, T/C (second compound 10 µM, first compound 10 µM) 0.16%
